# Laboratory results as given in US4608365A, “Treatment of neurologic functions” (priority 1984, dated 1986).
# Legend:
# [1] = human, in vivo
# Procedure: In three ALS patients given 25 mg TRH intravenously during 6 minutes, concommitant TRH values were measured in the plasma and serum at 0, 6 and 12 minutes.
# [2] = tested on: ALS patients; conditions: human, in vivo
# Procedure: Five ALS patients (men, women, duration of disease one, one, three and one-half, four and three years, respectively) were given TRH as a continuous intravenous infusion. […] For about one-fifth of the days, the patients were given saline placebo.
# It should be noted that the TRH administered in Example I was infused at a rate of up to 200 mg. over a twenty-four hour period. In terms of presence in the body at any one time, this amounted to an infusion rate of about 0.14 mg/minute ([…] body weight based upon the average patient weight of 70 kg). Accordingly, and in view of the significant results shown in Examples II-VIII, it appears that an elevated initial dose and consequently a blood level peak, providing a pulse-effect, is required each time TRH is given. Specifically, in Example IV, intravenous infusion at one milligram per minute (over seven times the infusion rate in Example I) produced an improvement of strength in several muscle functions. […] In Example IV, an acute increase in strength occurred at 4.7 mg/minute intravenously.
# There were several control aspects of the TRH studies. […] The patients given subcutaneous TRH had treatments interspersed with saline placebo injections. […] The time course of response was not known before the study and, in fact, it was expected that the onset would be later and the duration of response longer than was actually found. […]
# [3] = tested on: ALS patients; experiment: Transient autorefractory effect, intravenous TRH in ALS patients; format: in vivo, human
# Procedure: To analyze this phenomenon, four ALS patients were given six-minute intravenous pulses of […] of TRH at ten to twenty minute intervals. Each of the first one to five "priming doses" produced or, sustained dramatically-increased strength in responsive muscles. Subsequent identical pulses precipitated an equally dramatic interruption within 18-30 seconds causing rapid loss of all improvement, back to baseline strength or below, i.e., "autorefractoriness." Some weakness of clinically normal limb muscles also sometimes occurred. Eleven autorefractory states of the four patients lasted 12-100 minutes (median 68 minutes) after initial administration of TRH, until spontaneous recovery re-achieved maximal strength benefit. During recovery, strength fluctuated. […] When the autorefractory state first developed, with loss of strength to baseline, increasing the infusion to 1.5 mg/minute rapidly overcame the "block" within one minute, associated with increased strength. Within another minute, complete autorefractoriness reappeared. Raising the rate to 2 mg/minute again reversed this blockage, with strength increased to maximum in thirty seconds, but autorefractoriness reappeared in 1.5 minutes. […] Strength fluctuated between complete blockage and partial reversal for the next 71 minutes until the autorefractoriness fully reversed itself at 81 minutes.
# [4] = tested on: tissue-cultured fetal rat lower motor neurons; experiment: Trophic-like effect on tissue-cultured fetal rat lower motor neurons (cholineactyltransferase); format: cell-based; conditions: chronic
# From the text: "Transmitter-like," as used herein, includes not only direct excitatory (or facilitatory) and inhibitory actions on the lower motor neurons, but also any action on lower motor neurons or afferents thereto that results indirectly in such an effect. That excitatory TRH action, increasing patients' strength, is either directly excitatory or facilitatory and perhaps analogous to the lower motor neuron facilitation of glutamate excitation noted with TRH micropipetted into spinal cords of normal amphibia (Nicoll, J. Pharmac. Exp. Therap. 1978; 207: 817-24; Phillis et al., Can. J. Physiol. Pharmacol. 1979; 57: 887-99 and rodents, White Abstr. Soc. Neurosci 1983, 9: 714, and in other animal studies. An inhibitory transmitter-like action seems likely to underlie both the rapid-onset autorefractory phenomenon and the possibly related clinical reduction of spasticity, spasms and cramps. A tachyphalaxis or desensitization phenomenon, perhaps similar to the clinical autorefractory state, has been noted in animal lower motor neurons with larger amounts of TRH micropipetted into the spinal cord (Nicoll and Phillis, et al., supra).
# [5] = tested on: ALS patients; format: in vivo, human
# Procedure: Three fasting ALS patients (men aged 37 and 60 and a person; duration of disease three-quarters of a year, one and three years, respectively) were each given an intravenous infusion of TRH in which the dose increased in seven steps from 0.5 to 19 mg/minute over sixty to eighty minutes (total dose 320, 432 and 500 mg). The two men had major spasticity from upper motor neuron involvement and weakness from lower motor neuron involvement. […] Shivering, tachypnoea and sweating increased further with rising dosage, and in the two men the infusion was stopped at 19 mg/minute, after 320 and 432 mg total, because of tachypnoea (40-45 breaths per minute) and vigorous shivering. There also was a transient increase in pulse rate (10-15 beats per minute). The men experienced sensations of coolness or warmth of the anterior lower chest and abdomen. One of the men felt "bad all over" at 19 mg/minute. […] At that time, a spinal lumbar puncture was performed to obtain cerebrospinal fluid for analysis as hereinafter described. The patient had no spasticity, only weakness from lower motor neuron involvement. […] Their infusion was stopped when the drug supply was depleted (at 500 mg total dose). The dosage was not stopped because of side-effects of TRH. […] Experience with the additional patients confirmed the observation that there is more shivering side-effect in the patients with more spasticity.
# There were several control aspects of the TRH studies. […] The patients given subcutaneous TRH had treatments interspersed with saline placebo injections. […] The time course of response was not known before the study and, in fact, it was expected that the onset would be later and the duration of response longer than was actually found. Different patients responded to different doses of TRH, and the sex difference in response (woman apparently less responsive) was not expected. […] There were three observers, one unaware of the infusion status. In addition, clinical examinations of all patients of Examples III-VII were videotaped and later reviewed by several observers.
# [6] = eleven autorefractory states of four patients
structure (smiles),measurement,setting,value
"NC(=O)[C@@H]1CCCN1C(=O)[C@H](Cc1cnc[nH]1)NC(=O)[C@@H]1CCC(=O)N1 [TRH, L-pyroglutamyl-L-histidyl-L-prolinamide]",cerebrospinal fluid TRH level,[1],≤ 5368 pg/mL
same,transient rise in serum aminotransferases,[2],has not been found
same,onset of waning-waxing of TRH-increased lower motor neuron strength,"[3]; continuous i.v. 1-8 mg/minute, all patients",as early as three to thirty minutes
same,duration of autorefractory states,[3]; [6],12 to 100 min
same,median duration of autorefractory states,[3]; [6],68 min
same,partial reversal of autorefractoriness after TRH was stopped,[3]; one ALS patient,partially reversed at ten minutes
same,time to full reversal of autorefractoriness after TRH was stopped,[3]; one ALS patient,81 min
same,strength,"[3]; one ALS patient, 1 mg/minute continuous i.v.",markedly increased their strength
same,strength after raising the rate during autorefractoriness,"[3]; one ALS patient, 2.5 mg/minute for nine minutes",failed to increase strength
same,time to interruption (loss of all improvement) after subsequent identical pulses,"[3]; six-minute i.v. pulses of 4.17 mg/minute at ten to twenty minute intervals, four ALS patients",18 to 30 s
same,enhancement of cholineactyltransferase,[4],17 fold
same,effectiveness of low intravenous dose,"[5]; 0.5 mg/minute for twenty minutes, Examples II and III",not found to be effective
same,"dose at which shivering, tachypnoea and sweating began","[5]; human, in vivo, iv",8 mg/min
same,transient increase in pulse rate,"[5]; human, in vivo, iv",10-15 beats per minute
same,"dose at which movement and strength of legs, arms and tongue began to improve, with decreased spasticity","[5]; i.v. infusion increased in seven steps 0.5 to 19 mg/minute, two men",2 to 4 mg/min
same,persistence of benefits and side effects after infusion,[5]; i.v. stepwise infusion,no longer obvious thirty minutes after the infusion ended
same,"response of patient with no spasticity, only lower motor neuron weakness","[5]; i.v., 500 mg total dose",only slight subjective improvement in strength without obvious objective improvement
